{
  "source": "patent US5670538A",
  "about": "“Use of prodelphinidins for obtaining medicaments intended for the treatment of arthrosis” (Laboratoires Dolisos, priority 1992, dated 1997)",
  "key": {"[1]": {"system": "human articular chondrocytes", "test": "Radioimmunoassay of type II collagen (coll. II) produced in tridimensional culture of human chondrocytes", "type": "cell-based", "from_the_text": "The model used for testing the proanthocyanidols, namely the tridimensional culture of human chondrocytes allows chondrorepair to be quantified by the production of matrix substances: type II collagen, proteoglycans, and chondroresorption by the reduction in the levels of prostaglandin E2 and of OH° and O°2 type free radicals produced.\n1. Tridimensional culture of human chondrocytes\nThe technique used has been described in detail (Bassleer et al., 1986).\nBriefly, human articular chondrocytes are cultivated in DMEM (Dulbecco's Modification of Eagle's Medium--ICN--Gand, Belgium) with either Ultroser G 1% (GIBCO, Gand, Belgium) or 10% of foetal calf serum (ICN--Gand--Belgium), and 50 μg of ascorbic acid/ml added to it. The cartilage originates from the apparently normal zone of heads of human femur suffering from arthrosis, immediately after an operation carried out to insert a total hip prosthesis; it can also originate from the head of a healthy femur, but which has undergone a traumatism and has had to be replaced. This cartilage is then digested by clostridial collagenase 1 mg/ml (Boehringer-Mannheim, Germany) in a buffer (NaCl 120 mM, CaCl2 1 mM, KCl 5 mM, KH2 PO4 1 mM, NaHCO3 25 mM, glucose 2 mM and Hepes 30 mM, pH 7.4) for 24 hours. After 6 successive washings and centrifugations, the chondrocytes, isolated from their matrix, are cultured in flasks (10^6 cells/2 ml of culture medium) placed on a gyrator (10 rpm). The cultures are kept at 37° C. in an atmosphere of air 95%-CO2 5% (Bassleer et al., 1986). Cultivated under these conditions, after 4 to 5 days the chondrocytes form a tridimensional cluster in each flask. These clusters, which at first have a flocculent appearance, then tend to condense during the culture. After two weeks, their diameter is, in general, from 1 to 2 mm.\nThe fresh weight of the clusters increases with the duration of the culture, above all during the few first days.\n3. Radioimmunoassay of type II collagen (coll. II)\nThe method for the radioimmunoassay of coll. II has been described in detail (Henrotin et al., 1990). The coll. II is extracted from human articular cartilage according to the technique described by Herbage et al. (1977). The antiserum against coll. II was obtained from rabbits according to the technique of Vaitukaitis et al. (1971).\nThe assay is carried out by sequential saturation. In the first instance, the radioimmunoassay is carried out in a 0.3 ml volume consisting of 0.2 ml of incubation buffer (PBS-50 mM PO4, 300 mM NaCl, 5 g/l BSA (W/V), 6.7 mM sodium azide, pH 7.4) containing the reference coll. II (0.5 to 500 ng) or the sample to be assayed and 0.1 ml of anti-coll. II antiserum from guinea pigs diluted to 1/5000 (24 hours at 4° C.). In the second instance, 0.1 ml of ^125 I-coll. II tracer labelled according to the iodogenic technique (Salacynski et al., 1979 and diluted so as to obtain 20,000 cpm/0.1 ml) is added. After 24 hours at 4° C., the collagen-antibody complexes are separated from the free radioactive coll. II by the double antibody system (Franchimont et al. 1983). Sequential saturation gives a sensitivity of 3 ng/tube. The accuracy of the method is 10%. The coefficients of the intra- and inter assay variation are 10% and 20% respectively.\nThe assay is specific to human articular type II collagen.\nNo cross reaction is obtained with bovine collagen of type I, III or IV.\nThe culture media are stored at -20° C. in the presence of enzymatic inhibitors (Oegema et al., 1975). These media are assayed by the radio immunological method without any treatment beforehand. The chondrocyte clusters are washed and dissociated with ultrasonics according to the method described for the assay of the PGs. After centrifugation (1500 rpm, 10 minutes), the residue is extracted using 500 mM acetic acid under agitation for 24 hours at 4° C. The supernatant of the homogenate and the extract of the residue are mixed together and assayed after equilibration at pH 7.4 using 4M NaOH.\nThe recovery of coll. […]"}, "[2]": {"test": "Production of OH° hydroxyl radicals (gamma irradiation, KMB substrate, ethylene by gas chromatography)", "type": "biochemical", "conditions": "for % inhibition of the production of hydroxyl radicals: Substrate: KMB, relative to the controls", "experimental": "8. Production of OH° hydroxyl radicals\nThe products are dissolved in 10 ml flasks at the required concentration in phosphate buffer: 6.6.10^-2 M, pH 7.4 in the presence of alpha keto methiolbutyric acid (10^-3 M: KMB). After the flasks have been hermetically sealed, the samples are irradiated with gamma rays provided by a ^137 Cs source.\nThe OH° radicals produced by the gamma radiation react with the KMB to produce the ethylene detected by a gas chromatograph. The height of the ethylene peak is proportional to the quantity of free radicals formed in the medium (Weis et al., 1978)."}, "[3]": {"test": "Antilipoperoxidizing activity (gamma irradiation, linoleic acid substrate, pentane)", "type": "biochemical", "conditions": "for % inhibition of pentane release from linoleic acid (lipid peroxidation): Substrate: Linoleic acid, relative to the controls", "experimental": "9. Antilipoperoxidizing activity\nSimilar to the preceding anti-radical method but where the KMB is replaced by linoleic acid (C18: 2), the gamma radiation releases pentane which is analyzed. The height of the pentane peak is proportional to the quantity free of radicals formed in the medium."}, "[4]": {"system": "ferricytochrome C", "test": "Control experiments: direct reduction of ferricytochrome C by the product itself", "type": "biochemical", "conditions": "effect not quantifiable", "from_the_text": "This effect not being quantifiable, no conclusion can consequently be drawn on a possible inhibiting effect of these products on the production of the superoxide anion by the activated PMNs."}},
  "data": [
    {"smiles": "Oc1cc(O)c2c(c1)O[C@H](c1cc(O)c(O)c(O)c1)[C@@H](O)[C@@H]2c1c(O)cc(O)c2c1O[C@H](c1cc(O)c(O)c(O)c1)[C@H](O)C2", "note": "[Substance Ia, GC-(4 alpha→8) EGC]", "values": [
      {"measurement": "Average concentrations (m ± SD) of type II collagen in the clusters of chondrocytes at the end of 12 days of culture", "setting": "[1]; 1% Ultroser G, 1 μg/ml", "value": "105 ± 13 ng per μg of DNA"},
      {"measurement": "Cumulative release of coll.II over 12 days, Abs", "setting": "[1]; 1% Ultroser G, 1 μg/ml", "value": 482, "unit": "ng/μg DNA/12 days"},
      {"measurement": "Average concentrations (m ± SD) of type II collagen in the clusters of chondrocytes at the end of 12 days of culture", "setting": "[1]; 1% Ultroser G, 10 μg/ml", "value": "165 ± 21 ng per μg of DNA"},
      {"measurement": "Cumulative release of coll.II over 12 days, Abs", "setting": "[1]; 1% Ultroser G, 10 μg/ml", "value": 787, "unit": "ng/μg DNA/12 days"},
      {"measurement": "Average concentrations (m ± SD) of type II collagen in the clusters of chondrocytes at the end of 12 days of culture", "setting": "[1]; 1% Ultroser G, 100 μg/ml", "value": "175 ± 19 ng per μg of DNA"},
      {"measurement": "Cumulative release of coll.II over 12 days, Abs", "setting": "[1]; 1% Ultroser G, 100 μg/ml", "value": 962, "unit": "ng/μg DNA/12 days"},
      {"measurement": "Coll. II released in the culture medium", "setting": "[1]; 1% Ultroser G, culture time 0-4 days, 1 μg/ml", "value": "233 ± 25", "unit": "ng/μg DNA/96 h"},
      {"measurement": "Coll. II released in the culture medium", "setting": "[1]; 1% Ultroser G, culture time 0-4 days, 10 μg/ml", "value": "301 ± 52", "unit": "ng/μg DNA/96 h"},
      {"measurement": "Coll. II released in the culture medium", "setting": "[1]; 1% Ultroser G, culture time 0-4 days, 100 μg/ml", "value": "462 ± 51", "unit": "ng/μg DNA/96 h"},
      {"measurement": "Coll. II released in the culture medium", "setting": "[1]; 1% Ultroser G, culture time 4-8 days, 1 μg/ml", "value": "147 ± 19", "unit": "ng/μg DNA/96 h"},
      {"measurement": "Coll. II released in the culture medium", "setting": "[1]; 1% Ultroser G, culture time 4-8 days, 10 μg/ml", "value": "259 ± 22", "unit": "ng/μg DNA/96 h"},
      {"measurement": "Coll. II released in the culture medium", "setting": "[1]; 1% Ultroser G, culture time 4-8 days, 100 μg/ml", "value": "311 ± 41", "unit": "ng/μg DNA/96 h"},
      {"measurement": "Coll. II released in the culture medium", "setting": "[1]; 1% Ultroser G, culture time 8-12 days, 1 μg/ml", "value": "102.2 ± 10.96", "unit": "ng/μg DNA/96 h"},
      {"measurement": "Coll. II released in the culture medium", "setting": "[1]; 1% Ultroser G, culture time 8-12 days, 10 μg/ml", "value": "147 ± 21", "unit": "ng/μg DNA/96 h"},
      {"measurement": "Coll. II released in the culture medium", "setting": "[1]; 1% Ultroser G, culture time 8-12 days, 100 μg/ml", "value": "109 ± 23", "unit": "ng/μg DNA/96 h"},
      {"measurement": "activity at 1 µg/mL", "setting": "[1]; Homo sapiens, Chondrocyte, 288 h, 1% Ultroser G, 1 μg/ml, control = 100, read-out: Cumulative release of coll.II over 12 days, %", "value": 102, "unit": "%"},
      {"measurement": "activity at 10 µg/mL", "setting": "[1]; Homo sapiens, Chondrocyte, 288 h, 1% Ultroser G, 10 μg/ml, control = 100, read-out: Cumulative release of coll.II over 12 days, %", "value": 166, "unit": "%"},
      {"measurement": "activity at 100 µg/mL", "setting": "[1]; Homo sapiens, Chondrocyte, 288 h, 1% Ultroser G, 100 μg/ml, control = 100, read-out: Cumulative release of coll.II over 12 days, %", "value": 202, "unit": "%"},
      {"measurement": "Type II collagen in the culture media, effect in words", "setting": "[1]; foetal calf serum, 10 and 100 μg/ml", "value": "increases"},
      {"measurement": "Coll. II released in the culture medium", "setting": "[1]; foetal calf serum, Table 18, 0-4 days, 10 μg/ml", "value": "44.3 ± 2.30", "unit": "ng/μg DNA/96 H"},
      {"measurement": "Coll. II released in the culture medium", "setting": "[1]; foetal calf serum, Table 18, 0-4 days, 100 μg/ml", "value": "77.0 ± 15.58", "unit": "ng/μg DNA/96 H"},
      {"measurement": "Coll. II released in the culture medium", "setting": "[1]; foetal calf serum, Table 18, 4-8 days, 10 μg/ml", "value": "34.0 ± 3.11", "unit": "ng/μg DNA/96 H"},
      {"measurement": "Coll. II released in the culture medium", "setting": "[1]; foetal calf serum, Table 18, 4-8 days, 100 μg/ml", "value": "47.2 ± 5.19", "unit": "ng/μg DNA/96 H"},
      {"measurement": "Coll. II released in the culture medium", "setting": "[1]; foetal calf serum, Table 19, 0-4 days, 10 μg/ml", "value": "37.4 ± 1.98", "unit": "ng/μg DNA/96 H"},
      {"measurement": "Coll. II released in the culture medium", "setting": "[1]; foetal calf serum, Table 19, 0-4 days, 100 μg/ml", "value": "44.2 ± 11.6", "unit": "ng/μg DNA/96 H"},
      {"measurement": "Coll. II released in the culture medium", "setting": "[1]; foetal calf serum, Table 19, 4-8 days, 10 μg/ml", "value": "25.3 ± 2.20", "unit": "ng/μg DNA/96 H"},
      {"measurement": "Coll. II released in the culture medium", "setting": "[1]; foetal calf serum, Table 19, 4-8 days, 100 μg/ml", "value": "38.2 ± 5.71", "unit": "ng/μg DNA/96 H"},
      {"measurement": "Coll. II in the clusters", "setting": "[1]; foetal calf serum, experiment 397, 4-8 days, 10 μg/ml", "value": "78.8 ± 10.5", "unit": "ng/μg DNA"},
      {"measurement": "Coll. II in the clusters", "setting": "[1]; foetal calf serum, experiment 397, 4-8 days, 100 μg/ml", "value": "114.7 ± 10.55", "unit": "ng/μg DNA"},
      {"measurement": "Collagen II in the clusters, effect in words", "setting": "[1]; foetal calf serum, experiment 397, 10 and 100 μg/ml", "value": "An increase in collagen II is observed"},
      {"measurement": "% inhibition of the production of hydroxyl radicals", "setting": "[2]; 10^-3 M", "value": 78, "unit": "%"},
      {"measurement": "% inhibition of the production of hydroxyl radicals", "setting": "[2]; 10^-4 M", "value": 41, "unit": "%"},
      {"measurement": "% inhibition of the production of hydroxyl radicals", "setting": "[2]; 10^-5 M", "value": 22, "unit": "%"},
      {"measurement": "Production of free radicals from KMB, effect in words", "setting": "[2]; Table 22", "value": "significantly inhibits"},
      {"measurement": "% inhibition of pentane release from linoleic acid (lipid peroxidation)", "setting": "[3]; 10^-3 M", "value": 94, "unit": "%"},
      {"measurement": "% inhibition of pentane release from linoleic acid (lipid peroxidation)", "setting": "[3]; 10^-4 M", "value": 42, "unit": "%"},
      {"measurement": "% inhibition of pentane release from linoleic acid (lipid peroxidation)", "setting": "[3]; 10^-5 M", "value": 0, "unit": "%"},
      {"measurement": "Production of free radicals from linoleic acid, effect in words", "setting": "[3]; Table 23", "value": "significantly inhibits"},
      {"measurement": "Direct reduction of ferricytochrome C", "setting": "[4]", "value": "powerful reducers of ferricytochrome C"}
    ]}
  ]
}
